Publication PMC8896685 (PLoS ONE, 2022)
pIC50: −log10 of the molar value. Numbered stars: 1 amine (or outer) side, 2 acyl side, 3 side chain; on linkers, the order of the positions; unused ones are H or OH. Square brackets hold non-standard residues; d marks the D form. Side chains are listed from the residue outwards. Peptide text beside a SMILES is read from it. * marks the point of attachment. C18 diacid = O=C(O)CCCCCCCCCCCCCCCCC(=O)*; γGlu = O=C(O)[C@H](CCC(=O)[*:2])N[*:1]; Ac4c = NC1(C(=O)O)CCC1; AEEA = NCCOCCOCC(=O)O; Aib = CC(C)(N)C(=O)O

Key:
Rat GLP-1R = target: T1, Rat GLP-1R (Rattus norvegicus, UniProt P32301); test: Receptor binding, SPA competitive binding assay; details: SPA competitive binding on BHK cell membranes, [125I]-GLP-1(7–36)-NH2 tracer, 1% species specific plasma, 2 h 30°C; value (95% CI)
T1 construct: a plasmid encoding either the glucagon receptor or the GLP-1 receptor from the relevant species; expressed in transfected cells
T1 sequence (P32301 22-463): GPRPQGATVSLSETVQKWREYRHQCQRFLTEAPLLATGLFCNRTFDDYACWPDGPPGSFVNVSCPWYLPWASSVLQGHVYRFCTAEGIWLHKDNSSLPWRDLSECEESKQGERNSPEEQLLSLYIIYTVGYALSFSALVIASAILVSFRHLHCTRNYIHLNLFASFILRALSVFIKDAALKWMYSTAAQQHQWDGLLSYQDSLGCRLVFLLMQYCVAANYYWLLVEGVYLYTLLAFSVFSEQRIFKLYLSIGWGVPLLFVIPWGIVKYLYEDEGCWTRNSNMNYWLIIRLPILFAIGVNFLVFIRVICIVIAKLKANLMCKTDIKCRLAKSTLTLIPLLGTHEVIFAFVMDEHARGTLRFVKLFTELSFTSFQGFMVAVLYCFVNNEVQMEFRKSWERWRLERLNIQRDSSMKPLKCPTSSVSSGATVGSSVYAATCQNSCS
Protocol: (§1) The binding assay was performed on cell membranes in the presence of 1% (v/v) species-specific heparin-treated pooled plasma (Bioreclamation IVT, Westbury, NY) diluted in assay buffer (50 mM HEPES supplemented with 5 mM EGTA, 5 mM MgCl2, and 0.005% (v/v) Tween 20, pH7.4). […] Cells stably expressing an individual receptor of interest were grown at 5% CO2, 37°C in DMEM (supplemented with 10% FCS, 0.5 mg/ml G418 and 0.3 mg/ml hygromycin). Membrane preparations were made from cells harvested at approximately 80% confluence, washed and homogenized in 20 mM HEPES with 0.1 mM EDTA, pH 7.4. Protein concentration was determined, and the membranes were stored at -80°C until use. The membrane binding assay was performed in a 96-well OptiPlate (PerkinElmer) in a total volume of 200 μl. Test compounds were dissolved in 80% DMSO and further diluted in assay buffer. 50 μl of diluted plasma was added to the assay plate wells followed by addition of test compounds (25 μl), cell membranes (50 μl, 0.06 mg/ml), SPA beads (20 mg/ml in assay buffer) and radioligand (60,000 cpm/well, corresponding to 0.06 nM; 2200 Ci/mmol. Each assay plate was incubated for 2 h at 30°C, centrifuged at 1500 rpm for 10 minutes and counted in a TopCount NXT instrument (PerkinElmer).
(§2) For the receptor binding assays, logIC50 values were calculated using non-linear regression analysis. The error estimation was reported as the 95% confidence interval. […] The calculations were performed in GraphPad Prism 6.4 (GraphPad, San Diego, CA) and error estimation was expressed as the 95% confidence interval. […] Averages, error estimation, ratios and plasma shifts were all calculated on logIC50 or logEC50 values and transformed to the anti-log values for reporting purposes.

Human GLP-1R = Human GLP-1R (Homo sapiens, UniProt P43220); test: Receptor binding, SPA competitive binding assay; details: for pIC50: SPA competitive binding on BHK cell membranes, [125I]-GLP-1(7–36)-NH2 tracer, 1% species specific plasma, 2 h 30°C, value (95% CI)
Protocol: as §1, §2

Human GCGR = target: T2, Human GCGR (Homo sapiens, UniProt P47871); test: Receptor binding, SPA competitive binding assay; details: SPA competitive binding on BHK cell membranes, [125I]-glucagon tracer, 1% species specific plasma, 2 h 30°C; value (95% CI)
T2 construct: a plasmid encoding either the glucagon receptor or the GLP-1 receptor from the relevant species; expressed in transfected cells
Protocol: as §1, §2

Rat GCGR = target: T3, Rat GCGR (Rattus norvegicus, UniProt P30082); test: Receptor binding, SPA competitive binding assay; details: SPA competitive binding on BHK cell membranes, [125I]-glucagon tracer, 1% species specific plasma, 2 h 30°C; value (95% CI)
T3 construct: a plasmid encoding either the glucagon receptor or the GLP-1 receptor from the relevant species; expressed in transfected cells
Protocol: as §1, §2

DIO mice = test: Subchronic effect on body weight, body composition and food intake in DIO mice; format: in vivo, mouse
Excerpt: Male C57Bl/6J mice were purchased from Jackson Lab (Bar Harbour, ME) or Taconic, (Denmark). Male Sprague Dawley rats were purchased from Taconic (Denmark). Lean animals were fed regular chow diet (Altromin 1324, Brogaarden, Denmark). Obese animals were fed a high-fat diet, 45% kcal from fat (D12492, Research Diets, New Brunswick, NJ) from the age of 4–6 weeks in order to obtain a diet induced obese (DIO) phenotype. Animals were housed under temperature and humidity-controlled conditions in a 12:12 hr light:dark cycle (lights on at 6 a.m.). Rats were housed three per cage during high fat feeding and were single housed five weeks prior to study. Mice were single housed, two per cage, with a partitioning wall where possible. All animals had ad libitum access to diet and water, except when fasted prior to experimental procedures. Animals were acclimatized to study conditions (energy expenditure cages, daily mock handling etc) at least one week prior to first dose. […] At the time of study, animals were 20–30 weeks old with a body weight of 45–50 g (DIO mice) or approximately 600 g (DIO rats).
DIO mice received s.c. injections once daily for 4–5 weeks. Animals were dosed at different times of day to allow for assessment of glucose tolerance and other metabolic parameters at same time of day but at different time points in relation to dosing. […] Body composition was assessed in conscious animals by Magnetic Resonance (MR) scanning prior to initiation of treatment and at the end of the treatment period. Steady-state plasma parameters were assessed in non-fasted animals. Additional DIO mice (n = 4) were included for verification of 24-h peptide exposure in steady state. The mice received s.c. doses daily for 2 weeks (13 days) with 3 nmol/kg NN1177; 5 nmol/kg NN1151 or 5 nmol/kg NN1359, where after plasma sampled after t = 5 h (NN1177) or 6 h (NN1151, NN1359), 10 h (all co-agonists) and 24 h (all co-agonists) post-dosing was analysed for exposure.
Analogues were tested for subchronic effect in two different set-ups. […] The Cmax and Cmin animals were included in separate treatment groups and evaluated head-to-head for glucose tolerance and additional metabolic parameters at the end of the treatment period. […] IPGTT was performed as described above, but additionally blood was sampled from vena facialis of conscious animals at t = 210 min relative to the administration of glucose for exposure analysis.
IPGTT was performed as described above.
All in vivo data are presented as mean ±SEM. […] For the comparison of NN1177, NN1151 and NN1359 on glucose tolerance, vehicle-subtracted values were used to enable comparison across studies.

Sequence of Human GLP-1R (P43220 24-463): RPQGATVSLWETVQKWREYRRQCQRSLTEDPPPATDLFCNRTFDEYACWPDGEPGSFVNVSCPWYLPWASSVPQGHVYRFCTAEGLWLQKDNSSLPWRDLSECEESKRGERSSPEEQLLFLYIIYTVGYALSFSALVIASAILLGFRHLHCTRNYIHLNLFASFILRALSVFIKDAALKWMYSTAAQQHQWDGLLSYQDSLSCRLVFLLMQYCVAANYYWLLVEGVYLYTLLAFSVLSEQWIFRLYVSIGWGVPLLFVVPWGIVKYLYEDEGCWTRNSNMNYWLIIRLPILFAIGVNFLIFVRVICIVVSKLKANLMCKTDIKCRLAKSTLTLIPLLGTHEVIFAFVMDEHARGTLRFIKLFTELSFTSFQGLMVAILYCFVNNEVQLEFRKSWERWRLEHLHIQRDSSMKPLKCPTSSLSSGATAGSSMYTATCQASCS
T2 sequence (P47871 26-477): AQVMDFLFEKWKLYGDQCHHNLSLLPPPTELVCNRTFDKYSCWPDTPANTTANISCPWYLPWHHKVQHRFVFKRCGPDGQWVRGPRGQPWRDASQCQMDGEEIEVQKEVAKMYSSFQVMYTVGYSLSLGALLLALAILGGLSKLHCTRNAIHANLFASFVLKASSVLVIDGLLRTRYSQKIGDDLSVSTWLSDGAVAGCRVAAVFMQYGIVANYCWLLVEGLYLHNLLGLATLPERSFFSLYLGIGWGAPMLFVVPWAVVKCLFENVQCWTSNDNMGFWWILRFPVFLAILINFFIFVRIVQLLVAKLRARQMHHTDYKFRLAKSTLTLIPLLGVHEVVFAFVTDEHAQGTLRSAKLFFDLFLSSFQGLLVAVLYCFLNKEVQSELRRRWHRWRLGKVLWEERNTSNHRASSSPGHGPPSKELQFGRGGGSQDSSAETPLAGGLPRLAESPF
T3 sequence (P30082 27-485): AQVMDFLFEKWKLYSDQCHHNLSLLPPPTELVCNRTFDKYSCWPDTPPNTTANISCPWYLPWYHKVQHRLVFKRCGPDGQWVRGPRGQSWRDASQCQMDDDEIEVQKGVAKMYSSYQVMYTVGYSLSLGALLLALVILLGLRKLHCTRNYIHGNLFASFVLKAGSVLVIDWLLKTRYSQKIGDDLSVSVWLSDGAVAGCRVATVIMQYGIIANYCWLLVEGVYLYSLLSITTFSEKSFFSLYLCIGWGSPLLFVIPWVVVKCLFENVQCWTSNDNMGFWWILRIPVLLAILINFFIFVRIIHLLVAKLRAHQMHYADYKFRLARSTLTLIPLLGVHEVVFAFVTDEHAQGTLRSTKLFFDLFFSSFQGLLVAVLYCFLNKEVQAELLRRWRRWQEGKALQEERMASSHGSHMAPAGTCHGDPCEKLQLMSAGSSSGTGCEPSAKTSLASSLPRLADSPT

| Binding affinity to GLP-1 receptors relative to glucagon receptors (Human GLP-1R; across human, mouse and rat receptor binding assays, 1% plasma) | SMILES | pIC50 (Rat GLP-1R) | pIC50 (Human GLP-1R) | pIC50 (Human GCGR) | pIC50 (Rat GCGR) | Body weight reduction (DIO mice; 3–5 nmol/kg s.c. once daily, 5 weeks) | Effect on body weight (DIO mice; 1 nmol/kg s.c. once daily, 4 weeks) | Effect on body weight / tolerated weight loss (DIO mice; 10 and 30 nmol/kg s.c. once daily, maximum ethically tolerated weight loss reached) |
| --- | --- | --- | --- | --- | --- | --- | --- | --- |
| two-to four-fold | CC(C)C[C@H](NC(=O)[C@H](Cc1ccc(O)cc1)NC(=O)[C@H](CCCCN)NC(=O)[C@H](CO)NC(=O)[C@H](CC(C)C)NC(=O)[C@H](CC(=O)O)NC(=O)[C@H](CO)NC(=O)[C@@H](NC(=O)[C@H](Cc1ccccc1)NC(=O)[C@@H](NC(=O)CNC(=O)[C@H](CCC(N)=O)NC(=O)C(C)(C)NC(=O)[C@@H](N)Cc1c[nH]cn1)[C@@H](C)O)[C@@H](C)O)C(=O)N[C@@H](CCC(=O)O)C(=O)N[C@@H](CO)C(=O)N[C@@H](CCCCN)C(=O)N[C@@H](CCCNC(=N)N)C(=O)N[C@@H](C)C(=O)N[C@@H](CCCNC(=N)N)C(=O)N[C@@H](CCC(=O)O)C(=O)N[C@@H](Cc1ccccc1)C(=O)N[C@H](C(=O)N[C@@H](CCC(N)=O)C(=O)N[C@@H](Cc1c[nH]c2ccccc12)C(=O)N[C@@H](CC(C)C)C(=O)N[C@@H](CC(C)C)C(=O)N[C@@H](CCCCNC(=O)CC[C@H](NC(=O)CC[C@H](NC(=O)[C@H](CO)NC(=O)[C@H](CCC(=O)O)NC(=O)[C@H](CO)NC(=O)CC[C@H](NC(=O)CC[C@H](NC(=O)CCCCCCCCCCCCCCCCC(=O)O)C(=O)O)C(=O)O)C(=O)O)C(=O)O)C(=O)N[C@H](C(N)=O)[C@@H](C)O)C(C)C [NN1177] (H-H[Aib]QGTFTSDLSKYLESKRAREFVQWLLK([γGlu-γGlu-Ser-Glu-Ser-γGlu-γGlu-C18 diacid])T-NH2) | 9.77 | 9.19 | 8.60 | 9.52 | 22–33% |  |  |
|  | CC(C)C[C@H](NC(=O)[C@H](CC(=O)O)NC(=O)[C@H](CC(C)C)NC(=O)[C@H](Cc1ccc(O)cc1)NC(=O)[C@H](CCCCN)NC(=O)[C@H](CO)NC(=O)[C@H](CC(C)C)NC(=O)[C@H](CC(=O)O)NC(=O)[C@H](CO)NC(=O)[C@@H](NC(=O)[C@H](Cc1ccccc1)NC(=O)[C@@H](NC(=O)CNC(=O)[C@H](CCC(N)=O)NC(=O)C1(NC(=O)[C@@H](N)Cc2c[nH]cn2)CCC1)[C@@H](C)O)[C@@H](C)O)C(=O)N[C@@H](CCCNC(=N)N)C(=O)N[C@@H](CCCNC(=N)N)C(=O)N[C@@H](C)C(=O)N[C@@H](CCCNC(=N)N)C(=O)N[C@@H](CC(=O)O)C(=O)N[C@@H](Cc1ccccc1)C(=O)N[C@H](C(=O)N[C@@H](CCC(N)=O)C(=O)N[C@@H](Cc1c[nH]c2ccccc12)C(=O)N[C@@H](CC(C)C)C(=O)N[C@@H](CC(C)C)C(=O)N[C@@H](CCCCNC(=O)CC[C@H](NC(=O)CC[C@H](NC(=O)COCCOCCNC(=O)COCCOCCNC(=O)CC[C@H](NC(=O)CC[C@H](NC(=O)CCCCCCCCCCCCCCCCC(=O)O)C(=O)O)C(=O)O)C(=O)O)C(=O)O)C(=O)N[C@H](C(N)=O)[C@@H](C)O)C(C)C [NN1151] (H-H[Ac4c]QGTFTSDLSKYLDLRRARDFVQWLLK([γGlu-γGlu-AEEA-AEEA-γGlu-γGlu-C18 diacid])T-NH2) | 8.76 | 8.82 | 9.09 | 9.57 |  | No effect | majority of mice had to be terminated prematurely |
